The record followed here is US20250114367A1, “METHOD OF TREATING HAIR LOSS DISORDERS” (Sun Pharmaceutical Industries, Inc., priority 2023, published 2025).

The test has as its system adult subjects with moderate to severe AA. Kind of test: Phase III trial: Severity of Alopecia Tool (SALT) score. The format is in vivo, human. The note with it: for percentages of participants (responders) stratified by duration of current AA episode: week 24. As for the experimental part: The SALT score is calculated for a patient/subject by measuring the percentage of hair loss in each of the 4 areas of the scalp and adding the total to achieve a composite score (referred to herein as an absolute SALT score). Hair regrowth is reflected by a decrease in the SALT score.
Approximately 440 adult male and female subjects 18 to 65 years of age, inclusive, with moderate to severe AA participated in the study. Subjects with definitive diagnosis of AA, and at least 50% hair loss, as defined by a SALT score ≥50, who met all of the inclusion criteria and none of the exclusion criteria participated in the study.
The Screening Period lasted up to 28 days prior to initiation of study drug. […] Randomization was stratified by scalp hair loss into 1 of the following 2 categories: 1) partial scalp hair loss (SALT ≥50 and <95), 2) complete or near complete scalp hair loss (SALT ≥95).
Assessment of treatment response using SALT for efficacy occurred at 4, 8, 12, 16, 20 and 24 weeks.
The primary efficacy endpoint was the percentage of subjects achieving an absolute SALT score of ≤20.
Additional secondary efficacy endpoints included the following: • Relative change in SALT scores from baseline at Weeks 4, 8, 12, 16, 20, and 24. • Percentage of responders (defined as “much improved” or “very much improved”) using the Clinical Global Impression of Improvement (CGI-I) at Weeks 12, 16, 20, and 24. • Percentage of responders (defined as “much improved” or “very much improved”) using the Patient Global Impression of Improvement (PGI-I) at Weeks 12, 16, 20, and 24. • Change from baseline in the Clinical Global Impression of Severity (CGI-S) at Weeks 12, 16, 20, and 24. • Change from baseline in the Patient Global Impression of Severity (PGI-S) at Weeks 12, 16, 20, and 24. • Change from baseline on the Brigham Eyebrow Tool for Alopecia (BETA) score at Weeks 12 and 24. • Change from baseline on the Brigham Eyelash Tool for Alopecia (BELA) score at Weeks 12 and 24. • Percentage of subjects achieving at least a 75% relative reduction in SALT score from baseline at Weeks 12 and 24. • Percentage of subjects achieving at least a 90% relative reduction in SALT score from baseline at Weeks 12 and 24. • Percentage of responders (defined as “satisfied” or “very satisfied”) on the SPRO scale at Weeks 12, 16, and 20. • Change from baseline in the SPRO scale at Weeks 12, 16, 20, and 24. • Percentage of subjects achieving a ≥2-point change from baseline in the SPRO scale at Weeks 12, 16, 20, and 24. • Change from baseline on the individual items of the Hair Quality Patient Reported Outcome (QPRO) scale at Weeks 12, 16, 20, and 24. • Change from baseline in the depression scale of the Hospital Anxiety and Depression Scale (HADS) at Week 24. • Change from baseline in the anxiety scale of the HADS at Week 24. • Percentage of subjects achieving an absolute SALT score of ≤20 at Week 4. • Percentage of subjects achieving an absolute SALT score of ≤10 at Week 24
• Clinical presentation compatible with alopecia areata with a current episode lasting at least 6 months and not exceeding 10 years at the time of Screening. Total disease duration greater than 10 years is permitted. • At least 50% scalp hair loss, as defined by a Severity of Alopecia Tool (SALT) score ≥50, at Screening and Baseline. • Willing to comply with the study visits and requirements of the study protocol.
This will include but is not limited to: • a. Platelets ≤100×109/L or ≥600×109/L • b. Absolute neutrophil count ≤1.5×109/L • c.

On to `[2H]C1([2H])C([C@@H](CC#N)n2cc(-c3ncnc4[nH]ccc34)cn2)C([2H])([2H])C([2H])([2H])C1([2H])[2H]` [CTP-543, (R)-3-(4-(7H-pyrrolo[2,3-d]pyrimidin-4-yl)-1H-pyrazol-1-yl)-3-(cyclopentyl-2,2,3,3,4,4,5,5-d8) propanenitrile], for which the “percentage of subjects achieving an absolute SALT score of ≤20” value reads like this: (Week 8, 12 mg BID) 2.4%; (Week 12, 8 mg BID) 10.5%; (Week 12, 12 mg BID) 12.3%; (Week 16, 8 mg BID) 20.2%; (Week 16, 12 mg BID) 21.1%; (Week 20, 12 mg BID) 28.8%. The “percentage of subjects achieving an absolute SALT score of ≤20” value amounted to 33% (Week 24, 8 mg BID); 38.3% (Week 24, 12 mg BID); 2.9% (week 8, 8 mg BID). Moreover, for the setting “Week 24, 12 mg BID”, the “percentage of subjects with an absolute SALT score ≤10” value came to 26.7%. Also, the “subjects achieving SALT score ≤20” value is, setting by setting: (Week 24, complete or near-complete scalp hair loss, 8 mg BID, 31/156) 20.9%; (Week 24, complete or near-complete scalp hair loss, 8 mg BID, 37/184) 20.1%; (Week 24, complete or near-complete scalp hair loss, 12 mg BID, 19/79) 26.0; (Week 24, complete or near-complete scalp hair loss, 12 mg BID, 33/112) 29.5; (Week 24, partial scalp hair loss at baseline, 8 mg BID, 46/93) 54.1%; (Week 24, partial scalp hair loss at baseline, 8 mg BID, 57/134) 42.5%. Besides, the “subjects achieving SALT score ≤20” value is recorded as 57.4% (Week 24, partial scalp hair loss at baseline, 12 mg BID, 27/48) and 56.8% (Week 24, partial scalp hair loss at baseline, 12 mg BID, 50/88). Further, the “hair regrowth vs placebo” value (two Phase 3 trials, THRIVE-AA1 and THRIVE-AA2) is “significant improvements in hair regrowth vs placebo”. Moreover, the “percentages of participants (responders) stratified by duration of current AA episode” value is, setting by setting: (>4 years duration, 12 mg BID, 13/50) 28.9%; (≤4 years duration, 8 mg BID, 57/157) 38.3%; (≤4 years duration, 12 mg BID, 33/77) 44.0%.
